Data: US10660334B2, “Fused bicyclic heterocycle derivatives as pesticides” (Bayer CropScience Aktiengesellschaft, priority 2016, dated 2020)

What was measured:
[1] = log P by HPLC on reversed-phase column (EEC Directive 79/831 Annex V.A8), acidic range; type: physicochemical; details: reversed-phase C18 HPLC column; HPLC reversed-phase C18, 55° C., pH 2.7, 0.1% aqueous formic acid and acetonitrile; read-out: log P (HCOOH)
Experimental: The log P values are measured according to EEC Directive 79/831 Annex V.A8 by HPLC (high-performance liquid chromatography) on a reversed-phase column (C18). Temperature: 55° C. The LC-MS determination in the acidic range is effected at pH 2.7 with 0.1% aqueous formic acid and acetonitrile (containing 0.1% formic acid) as eluents; linear gradient from 10% acetonitrile to 95% acetonitrile. Called log P (HCOOH) in the table.

[2] = test system: Ctenocephalides felis; experiment: Ctenocephalides felis in vitro contact test with adult cat fleas; type: in vivo; details: application rate 5 μg/cm^2 (=500 g/ha), after 48 h
Experimental: Ctenocephalides felis—In Vitro Contact Tests with Adult Cat Fleas For the coating of the test tubes, 9 mg of active ingredient are first dissolved in 1 ml of acetone p.a. and then diluted to the desired concentration with acetone p.a. 250 μl of the solution are distributed homogeneously on the inner walls and the base of a 25 ml glass tube by turning and rocking on an orbital shaker (rocking rotation at 30 rpm for 2 h). With 900 ppm of active ingredient solution and internal surface area 44.7 cm^2, given homogeneous distribution, an area-based dose of 5 μg/cm^2 is achieved. After the solvent has evaporated off, the tubes are populated with 5-10 adult cat fleas (Ctenocephalides felis), sealed with a perforated plastic lid and incubated in a horizontal position at room temperature and ambient humidity. After 48 h, efficacy is determined. To this end, the tubes are stood upright and the fleas are knocked to the base of the tube. Fleas which remain motionless at the base or move in an uncoordinated manner are considered to be dead or moribund. […] 100% efficacy means that all the fleas were dead or moribund. 0% efficacy means that no fleas were harmed.

[3] = test system: Tetranychus urticae; experiment: Tetranychus urticae spray test, OP-resistant; type: in vivo; details: application rate 100 g/ha, spray on bean leaf discs, after 6 days
Experimental: Tetranychus urticae—Spray Test, OP-Resistant
(§1) Solvent: 78.0 parts by weight of acetone • • 1.5 parts by weight of dimethylformamide
(§2) Emulsifier: alkylaryl polyglycol ether
(§3) To produce a suitable active ingredient formulation, 1 part by weight of active ingredient is dissolved with the specified parts by weight of solvent and made up to the desired concentration with water containing an emulsifier concentration of 1000 ppm. To produce further test concentrations, the formulation is diluted with emulsifier-containing water.
Discs of bean leaves (Phaseolus vulgaris) infested with all stages of the greenhouse red spider mite (Tetranychus urticae) are sprayed with an active ingredient formulation of the desired concentration.
After 6 days, the efficacy in % is determined. 100% means that all the spider mites have been killed; 0% means that no spider mites have been killed.

[4] = test system: Myzus persicae; experiment: Myzus persicae spray test; type: in vivo; details: foliar, 120 h, spray on Chinese cabbage leaf discs, after 5 days, read-out: efficacy (aphids killed); for pest or weed control at 100 g/ha: application rate 100 g/ha; for pest or weed control at 20 g/ha: application rate 20 g/ha
Experimental: Myzus persicae—Spray Test Solvent: 78 parts by weight of acetone • • 1.5 parts by weight of dimethylformamide Emulsifier: alkylaryl polyglycol ether To produce a suitable active ingredient formulation, 1 part by weight of active ingredient is dissolved with the specified parts by weight of solvent and made up to the desired concentration with water containing an emulsifier concentration of 1000 ppm. To produce further test concentrations, the formulation is diluted with emulsifier-containing water. Discs of Chinese cabbage leaves (Brassica pekinensis) infested by all stages of the green peach aphid (Myzus persicae) are sprayed with an active ingredient formulation of the desired concentration. After 5 days, the efficacy in % is determined. 100% means that all the aphids have been killed; 0% means that no aphids have been killed.

[5] = test system: Myzus persicae; experiment: Myzus persicae oral test; type: in vivo; details: 120 h, application rate 4 ppm, after 5 days, read-out: efficacy (aphids killed)
Experimental: Myzus persicae—Oral Test Solvent: 100 parts by weight of acetone To produce a suitable active ingredient formulation, 1 part by weight of active ingredient is dissolved with the stated parts by weight of solvent and made up to the desired concentration with water. 50 μl of the active ingredient preparation are transferred into microtitre plates and made up to a final volume of 200 μl with 150 μl of IPL41 insect medium (33%+15% sugar). Subsequently, the plates are sealed with parafilm, which a mixed population of green peach aphids (Myzus persicae) within a second microtitre plate is able to puncture and imbibe the solution. After 5 days, the efficacy in % is determined. 100% means that all the aphids have been killed; 0% means that no aphids have been killed.

[6] = test system: Lucilia cuprina; experiment: Lucilia cuprina test; type: in vivo; details: application rate 100 ppm, L1 larvae, after 2 days
Experimental: Lucilia cuprina Test Solvent: dimethyl sulfoxide To produce a suitable active ingredient formulation, 10 mg of active ingredient are mixed with 0.5 ml of dimethyl sulfoxide, and the concentrate is diluted with water to the desired concentration. About 20 L1 larvae of the Australian sheep blowfly (Lucilia cuprina) are transferred into a test vessel containing minced horsemeat and the active ingredient formulation of the desired concentration. After 2 days, the kill in % is determined. 100% means that all the larvae have been killed; 0% means that no larvae have been killed.

[7] = test system: Musca domestica; experiment: Musca domestica test; type: in vivo; details: application rate 100 ppm, adult houseflies, after 2 days
Experimental: Musca domestica Test Solvent: dimethyl sulfoxide To produce a suitable active ingredient formulation, 10 mg of active ingredient are mixed with 0.5 ml of dimethyl sulfoxide, and the concentrate is diluted with water to the desired concentration. Vessels containing a sponge treated with sugar solution and the active ingredient formulation of the desired concentration are populated with 10 adult houseflies (Musca domestica). After 2 days, the kill in % is determined. 100% means that all of the flies have been killed; 0% means that none of the flies have been killed.

[8] = test system: Ctenocephalides felis; experiment: Ctenocephalides felis oral test; type: in vivo; details: application rate 100 ppm in citrated cattle blood, after 2 days, adult cat fleas
Experimental: Ctenocephalides felis—Oral Test Solvent: dimethyl sulfoxide To produce a suitable active ingredient formulation, 10 mg of active ingredient are mixed with 0.5 ml of dimethyl sulfoxide. Dilution with citrated cattle blood gives the desired concentration. About 20 unfed adult cat fleas (Cienocephalides felis) are placed into a chamber which is closed at the top and bottom with gauze. A metal cylinder whose bottom end is closed with parafilm is placed onto the chamber. The cylinder contains the blood/active ingredient formulation, which can be imbibed by the fleas through the parafilm membrane. After 2 days, the kill in % is determined. 100% means that all of the fleas have been killed; 0% means that none of the fleas have been killed.

[9] = test system: Boophilus microplus; experiment: Boophilus microplus injection test; type: in vivo; details: application rate 20 μg/animal, injection into engorged adult female cattle ticks, after 7 days
Experimental: Boophilus microplus—Injection Test Solvent: dimethyl sulfoxide To produce a suitable active ingredient formulation, 10 mg of active ingredient are mixed with 0.5 ml of solvent and the concentrate is diluted to the desired concentration with solvent. 1 μl of the active ingredient solution is injected into the abdomen of 5 engorged adult female cattle ticks (Boophilus microplus). The animals are transferred into dishes and kept in a climate-controlled room. Efficacy is assessed after 7 days by laying of fertile eggs. Eggs which are not visibly fertile are stored in a climate-controlled cabinet until the larvae hatch after about 42 days. An efficacy of 100% means that none of the ticks has laid any fertile eggs; 0% means that all the eggs are fertile.

[10] = test system: Spodoptera frugiperda; experiment: Spodoptera frugiperda spray test; type: in vivo; details: application rate 100 g/ha, spray on maize leaf discs, after 7 days
Experimental: Spodoptera frugiperda—Spray Test Solvent: 78.0 parts by weight of acetone • • 1.5 parts by weight of dimethylformamide Emulsifier: alkylaryl polyglycol ether To produce a suitable active ingredient formulation, 1 part by weight of active ingredient is dissolved with the specified parts by weight of solvent and made up to the desired concentration with water containing an emulsifier concentration of 1000 ppm. To produce further test concentrations, the formulation is diluted with emulsifier-containing water. Leaf discs of maize (Zea mays) are sprayed with an active ingredient formulation of the desired concentration and, after drying, populated with caterpillars of the armyworm (Spodoptera frugiperda). After 7 days, the efficacy in % is determined. 100% means that all the caterpillars have been killed; 0% means that no caterpillar has been killed.

[11] = test system: Phaedon cochleariae; experiment: Phaedon cochleariae spray test; type: in vivo; details: application rate 100 g/ha, spray on Chinese cabbage leaf discs, after 7 days
Experimental: Phaedon cochleariae—Spray Test
as §1, §2, §3
Discs of Chinese cabbage leaves (Brassica pekinensis) are sprayed with an active ingredient formulation of the desired concentration and, after drying, populated with larvae of the mustard beetle (Phaedon cochleariae).
After 7 days, the efficacy in % is determined. 100% means that all the beetle larvae have been killed; 0% means that no beetle larvae have been killed.

[12] = test system: Meloidogyne incognita; experiment: Meloidogyne incognita test; type: in vivo; details: application rate 20 ppm, lettuce, after 14 days
Experimental: Meloidogyne incognita Test Solvent: 125.0 parts by weight of acetone To produce a suitable active ingredient formulation, 1 part by weight of active ingredient is mixed with the stated amount of solvent and the concentrate is diluted to the desired concentration with water. Vessels are filled with sand, active ingredient solution, an egg/larvae suspension of the southern root-knot nematode (Meloidogyne incognita) and lettuce seeds. The lettuce seeds germinate and the plants develop. The galls develop on the roots. After 14 days, the nematicidal efficacy in % is determined by the formation of galls. 100% means that no galls were found; 0% means that the number of galls on the treated plants corresponds to the untreated control.

| chromatographic logP [1] | SMILES | efficacy (fleas dead or moribund) [2] [%] | efficacy (spider mites killed) [3] [%] | pest or weed control at 100 g/ha [4] [%] | pest or weed control at 4 ppm [5] [%] | efficacy (kill) [6] [%] | efficacy (kill) [7] [%] | pest or weed control at 20 g/ha [4] [%] | efficacy (kill) [8] [%] | efficacy (laying of fertile eggs) [9] [%] | efficacy (caterpillars killed) [10] [%] | efficacy (beetle larvae killed) [11] [%] | nematicidal efficacy (formation of galls) [12] [%] |
| --- | --- | --- | --- | --- | --- | --- | --- | --- | --- | --- | --- | --- | --- |
| 2.37 | CCSc1c(-c2nc3cc(C(F)(F)F)ncc3n2C)nc2n1CCCC2 [Example I-001, 2-(3-Ethylsulfanyl-5,6,7,8-tetrahydroimidazo[1,2-a]pyridin-2-yl)-3-methyl-6-(trifluoromethyl)imidazo[4,5-c]pyridine] | 100 |  |  |  |  |  |  |  |  |  |  |  |
|  | CCS(=O)(=O)c1c(-c2nc3cc(C(F)(F)F)ncc3n2C)nc2n1CC(C(F)(F)F)CC2 (stereo not shown) [Example I-003] |  | 90 | 100 | 100 |  |  |  |  |  |  |  |  |
|  | CCS(=O)(=O)c1c(-c2nc3cc(C(F)(F)F)ncc3n2C)nc2n1CCC(C)C2 (stereo not shown) [Example I-007] | 100 |  | 100 | 100 | 100 | 100 | 100 | 80 |  |  |  |  |
|  | CCS(=O)(=O)c1c(-c2nc3cc(C(F)(F)F)ncc3n2C)nc2n1CC(C)CC2 (stereo not shown) [Example I-009] |  |  | 100 | 100 | 100 | 100 | 90 | 80 | 100 |  |  |  |
|  | CCS(=O)(=O)c1c(-c2nc3cc(C(F)(F)F)ncc3n2C)nc2n1CCC(C(F)(F)F)C2 (stereo not shown) [Example I-010] |  |  |  | 100 |  |  | 90 |  |  | 83 |  |  |
|  | CCS(=O)(=O)c1c(-c2nc3cc(C(F)(F)F)cnc3n2C)nc2n1CCCC2 [Example I-011] |  |  | 90 | 100 | 100 | 80 | 90 | 95 |  |  |  |  |
|  | CCS(=O)(=O)c1c(-c2nc3cc(C(F)(F)C(F)(F)F)ncc3n2C)nc2n1CCCC2 [Example I-012] |  |  | 90 | 100 | 100 |  | 90 | 100 |  | 83 | 100 | 90 |
|  | Cn1c(-c2nc3n(c2S(C)(=O)=O)CCCC3)nc2cc(C(F)(F)C(F)(F)F)ncc21 [Example I-013] |  |  | 90 | 100 | 100 | 80 |  | 95 |  |  | 83 |  |
|  | CCS(=O)(=O)c1c(-c2nc3cc(C(F)(F)C(F)(F)F)cnc3n2C)nc2n1CCCC2 [Example I-017] |  |  | 100 | 100 |  |  | 90 |  |  | 100 |  |  |
